# “Also recorded” adds a separate entry of the source. Where two headings read alike, the source gives them in different places.
# Key:
# [1] = tested on: glutamic acid oxidase (known enzyme); settings: cited from earlier work
# [2] = molecular target: T1, L-glutamic acid oxidase (enzyme of the present invention) (Streptomyces sp, UniProt Q8L3C7); experiment: Substrate specificity of the enzyme of the present invention, oxygen electrode method; format: biochemical, Streptomyces sp. X-119-6
# T1 construct: isolated and purified the enzyme of the present invention as a single enzyme protein from such a cultured product of the microorganism; made in house; host or cells: natural producer, Streptomyces sp; (strain X-119-6 per the earlier reading); enzyme purified from the cultured product, not recombinant
# T1 sequence (Q8L3C7 15-390 limits assumed): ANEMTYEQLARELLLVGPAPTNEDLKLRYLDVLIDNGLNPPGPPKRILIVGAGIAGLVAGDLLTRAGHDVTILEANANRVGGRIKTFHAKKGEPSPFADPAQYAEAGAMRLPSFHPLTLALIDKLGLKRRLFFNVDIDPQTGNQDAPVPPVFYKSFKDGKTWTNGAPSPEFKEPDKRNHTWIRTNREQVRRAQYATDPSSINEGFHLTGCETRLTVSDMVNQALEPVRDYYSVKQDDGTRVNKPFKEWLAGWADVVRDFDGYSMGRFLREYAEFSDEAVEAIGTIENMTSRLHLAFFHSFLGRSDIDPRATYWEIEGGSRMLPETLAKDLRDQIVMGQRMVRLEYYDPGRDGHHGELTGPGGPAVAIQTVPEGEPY
# T1 sequence (Q8L3C7 391-520 limits assumed): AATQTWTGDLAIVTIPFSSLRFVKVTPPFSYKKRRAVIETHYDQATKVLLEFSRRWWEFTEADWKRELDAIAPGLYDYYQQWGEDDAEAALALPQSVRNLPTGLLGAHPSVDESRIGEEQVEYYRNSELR
# T1 sequence (Q8L3C7 521-701 limits assumed): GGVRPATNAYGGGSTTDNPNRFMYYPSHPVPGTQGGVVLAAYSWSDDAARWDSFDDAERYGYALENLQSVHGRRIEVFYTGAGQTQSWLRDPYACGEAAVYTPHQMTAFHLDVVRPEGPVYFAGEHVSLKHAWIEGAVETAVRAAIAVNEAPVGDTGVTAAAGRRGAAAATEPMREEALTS
# Experimental: The concentration of each substrate was 10 mM, and the reactions were carried out at pH 7.4 (0.1 M potassium phosphate buffer) and pH 6.0 (0.1 M acetate buffer).
# [3] = tested on: glutamic acid oxidase (known enzyme); settings: cited from earlier work; for activity of the known enzyme for the substrate: relative to L-glutamic acid; for relative activity of the known enzyme: velocity for L-glutamic acid given as 100
# [4] = molecular target: T1, L-glutamic acid oxidase (enzyme of the present invention); experiment: Effects of additives on the enzyme activity (inhibition, activation); format: biochemical, Streptomyces sp. X-119-6; settings: additive 1 mM
# Experimental: For examination of the effects of various additives on the enzyme activity of the present invention, enzymatic reaction was carried out in a reaction mixture (pH 7.4) containing each of the substances shown in Table 2 at a concentration of 1 mM.
# [5] = molecular target: T1, L-glutamic acid oxidase (enzyme of the present invention); experiment: km values of the enzyme of the present invention; format: biochemical, Streptomyces sp. X-119-6; settings: pH 7.4
# Experimental: That is, 1 ml of 0.1 M potassium phosphate buffer (pH 7.4) containing 10 mM sodium L-glutamate was charged into an oxygen electrode cell and 10 μl of an enzyme solution was added thereto to measure the oxygen consumption rate. One unit of enzyme was determined as the amount of enzyme which consumes 1μ mol of oxygen per minute at 30° C. in the absence of catalase (unit: hereinafter abbreviated as "U").
# [6] = pH of 6.0 or less or pH 10.0 or more
structure (smiles),measurement,setting,value
[Cu+2] [copper ions],inhibition of the known enzyme,[1],Substantially completely inhibited; also recorded: markedly inhibited
N[C@@H](Cc1c[nH]cn1)C(=O)O [L-Histidine],activity of the enzyme of the present invention for the substrate,[2],substantially no activity
same,activity of the known enzyme for the substrate,[3],6.8%
same,relative activity of the known enzyme,[3],6.8
NC(=O)CC[C@H](N)C(=O)O [L-Glutamine],activity of the enzyme of the present invention for the substrate,[2],substantially no activity
same,activity of the known enzyme for the substrate,[3],8.4%
same,relative activity of the known enzyme,[3],8.4
[Ca+2].[Cl-].[Cl-] [CaCl2],Relative activity,"[4]; reaction mixture pH 7.4, no addition = 100",100.0
N[C@@H](CC(=O)O)C(=O)O [L-Aspartic acid],activity of the enzyme of the present invention for the substrate,[2]; pH 6.0,substantially no activity
same,Km,[5],29 mM
same,action of the enzyme of the present invention on the substrate,[6],substantially no action
same,activity of the known enzyme for the substrate,[3],≤ 0.1%
N[C@H](CCC(=O)O)C(=O)O [D-Glutamic acid],activity of the enzyme of the present invention for the substrate,[2],substantially no activity
"[Cl][Cu][Cl] [CuCl2, cupric chloride]",inhibition of the activity of the enzyme of the present invention,[4]; pH 7.4,not inhibited at all
same,inhibition of the known enzyme,[1],completely inhibited
